Results: patent US20230133672A1, “FUSION POLYPEPTIDE COMPRISING GDF15 AND POLYPEPTIDE REGION CAPABLE OF O-GLYCOSYLATION” (LG CHEM, LTD., priority 2019, published 2023)

Assays:
[1] = Single administration: feed intake in DIO mice; assay type: in vivo, Mouse, C57BL/6J-DIO; design: unit not given here
Protocol: The pharmacological effect of the fusion polypeptides produced and purified in Example 1 above was tested in mice (C57BL/6J, 6-week-old, male, 100 mice; Raonbio).
In the present example, DI0 mouse model (Mouse, C57BL/6J-DIO, male, 100 mice, 14-week-old (obesity feed feeding for 8 weeks)) in which obesity was induced by feeding a high-fat diet into the C57BL/6J mice for 8 weeks was used.
The administration of the test substances HT-ID1-GDF15, HT-ID2-GDF15, and HT-ID3-GDF15 and the control substance Semaglutide (Bachem) was conducted from the next day after group separation, and the administration time was performed at 9 AM every day. Subcutaneous administration was conducted for all the control substance and test substances. For the administration route of the control substance and test substances, subcutaneous administration was selected depending on the clinically scheduled administration route.
For all the control substance and test substances, the amount of the administration solution was set to 5 mL/kg and the administration liquid by individual was calculated on the basis of the recently measured body weight and it was administered by subcutaneous injection once on the start day of the test using a disposable syringe (1 mL). The test substances were administered only once. For comparison, the control group in which the control substance Semaglutide was administered was prepared, and the comparison group in which Semaglutide was administered was administered once a day, and all the administration was progressed from 9 AM.
(§1) In addition, after administering the test substances into mice, the daily feed intake was measured, and the feeding amount was measured using an electronic scale for each breeding box, and the remaining amount was measured to calculate the daily feed intake. In case of an individual that gnawed heavily on heed, it was excluded from the measurement.
(§2) All the experimental results obtained in the present example were expressed as mean±standard error and tested using Prism5 (version 5.01). One-way analysis of variance (ANOVA) was performed on all data, and when significance was observed, Dunnett's test was performed to find out the test groups with a significant difference from the control group (significance level: two-sided 5% and 1%, 0.1%).

[2] = Repeated administration: feed intake in DIO mice; assay type: in vivo, Mouse, C57BL/6J-DIO; design: unit not given here
Protocol: as §1, §2
Except for the administration dose, animal number and administration cycle, most of the test processes were the same as in Example 2.1.1 above.
The test substances were administered twice a week (Days 0, 4, 7, 11, 14, 18, 21, 25) for a total of 8 times. For comparison, the control group in which the control substance Semaglutide was administered every day was prepared, and the comparison group in which Semaglutide was administered every day was administered once a day daily, and all the administration was progressed from 9 AM.

HT-ID3-GDF15: Fusion polypeptide: His-Tag, TEV cleavage site, three IgD hinges, GS linker, GDF15 (SEQ ID NO: 3)
Feed intake, Mean ([1]; Day 0, 10 nmol/kg Single Inj.): 3.2 | Feed intake, Mean ([1]; Day 1, 10 nmol/kg Single Inj.): 2.0 | Feed intake, Mean ([1]; Day 2, 10 nmol/kg Single Inj.): 2.5 | Feed intake, Mean ([1]; Day 3, 10 nmol/kg Single Inj.): 2.3 | Feed intake, Mean ([1]; Day 4, 10 nmol/kg Single Inj.): 2.3 | Feed intake, Mean ([1]; Day 5, 10 nmol/kg Single Inj.): 2.7 | Feed intake, Mean ([1]; Day 6, 10 nmol/kg Single Inj.): 2.8 | Feed intake, Mean ([1]; Day 7, 10 nmol/kg Single Inj.): 3.3 | Feed intake, Mean ([1]; Day 8, 10 nmol/kg Single Inj.): 3.3 | Feed intake, Mean ([1]; Day 9, 10 nmol/kg Single Inj.): 3.6 | Feed intake, Mean ([2]; Day 1, 3 nmol/kg twice a week): 2.9 | Feed intake, Mean ([2]; Day 1, 10 nmol/kg twice a week): 2.9 | Feed intake, Mean ([2]; Day 1, 30 nmol/kg twice a week): 2.5 | Feed intake, Mean ([2]; Day 2, 3 nmol/kg twice a week): 1.5 | Feed intake, Mean ([2]; Day 2, 10 nmol/kg twice a week): 1.7 | Feed intake, Mean ([2]; Day 2, 30 nmol/kg twice a week): 1.6 | Feed intake, Mean ([2]; Day 3, 3 nmol/kg twice a week): 1.9 | Feed intake, Mean ([2]; Day 3, 10 nmol/kg twice a week): 2.3 | Feed intake, Mean ([2]; Day 3, 30 nmol/kg twice a week): 2.1 | Feed intake, Mean ([2]; Day 4, 3 nmol/kg twice a week): 1.9 | Feed intake, Mean ([2]; Day 4, 10 nmol/kg twice a week): 2.2 | Feed intake, Mean ([2]; Day 4, 30 nmol/kg twice a week): 2.2 | Feed intake, Mean ([2]; Day 5, 3 nmol/kg twice a week): 2.0 | Feed intake, Mean ([2]; Day 5, 10 nmol/kg twice a week): 2.1 | Feed intake, Mean ([2]; Day 5, 30 nmol/kg twice a week): 2.3 | Feed intake, Mean ([2]; Day 6, 3 nmol/kg twice a week): 1.6 | Feed intake, Mean ([2]; Day 6, 10 nmol/kg twice a week): 1.9 | Feed intake, Mean ([2]; Day 6, 30 nmol/kg twice a week): 1.8 | Feed intake, Mean ([2]; Day 7, 3 nmol/kg twice a week): 2.1 | Feed intake, Mean ([2]; Day 7, 10 nmol/kg twice a week): 2.2 | Feed intake, Mean ([2]; Day 7, 30 nmol/kg twice a week): 2.2 | Feed intake, Mean ([2]; Day 8, 3 nmol/kg twice a week): 2.1 | Feed intake, Mean ([2]; Day 8, 10 nmol/kg twice a week): 2.1 | Feed intake, Mean ([2]; Day 8, 30 nmol/kg twice a week): 2.1 | Feed intake, Mean ([2]; Day 9, 3 nmol/kg twice a week): 1.9 | Feed intake, Mean ([2]; Day 9, 10 nmol/kg twice a week): 2.1 | Feed intake, Mean ([2]; Day 9, 30 nmol/kg twice a week): 2.0 | Feed intake, Mean ([2]; Day 10, 3 nmol/kg twice a week): 2.4 | Feed intake, Mean ([2]; Day 10, 10 nmol/kg twice a week): 2.4 | Feed intake, Mean ([2]; Day 10, 30 nmol/kg twice a week): 2.5 | Feed intake, Mean ([2]; Day 11, 3 nmol/kg twice a week): 2.5 | Feed intake, Mean ([2]; Day 11, 10 nmol/kg twice a week): 3.0 | Feed intake, Mean ([2]; Day 11, 30 nmol/kg twice a week): 2.9 | Feed intake, Mean ([2]; Day 12, 3 nmol/kg twice a week): 3.9 | Feed intake, Mean ([2]; Day 12, 10 nmol/kg twice a week): 4.1 | Feed intake, Mean ([2]; Day 12, 30 nmol/kg twice a week): 4.0 | Feed intake, Mean ([2]; Day 13, 3 nmol/kg twice a week): 2.9 | Feed intake, Mean ([2]; Day 13, 10 nmol/kg twice a week): 2.5 | Feed intake, Mean ([2]; Day 13, 30 nmol/kg twice a week): 2.1 | Feed intake, Mean ([2]; Day 14, 3 nmol/kg twice a week): 3.2 | Feed intake, Mean ([2]; Day 14, 10 nmol/kg twice a week): 3.3 | Feed intake, Mean ([2]; Day 14, 30 nmol/kg twice a week): 3.0 | Feed intake, Mean ([2]; Day 15, 3 nmol/kg twice a week): 3.1 | Feed intake, Mean ([2]; Day 15, 10 nmol/kg twice a week): 3.2 | Feed intake, Mean ([2]; Day 15, 30 nmol/kg twice a week): 3.1 | Feed intake, Mean ([2]; Day 16, 3 nmol/kg twice a week): 2.7 | Feed intake, Mean ([2]; Day 16, 10 nmol/kg twice a week): 2.2 | Feed intake, Mean ([2]; Day 16, 30 nmol/kg twice a week): 1.9 | Feed intake, Mean ([2]; Day 17, 3 nmol/kg twice a week): 3.0 | Feed intake, Mean ([2]; Day 17, 10 nmol/kg twice a week): 3.3 | Feed intake, Mean ([2]; Day 17, 30 nmol/kg twice a week): 3.0 | Feed intake, Mean ([2]; Day 18, 3 nmol/kg twice a week): 3.1 | Feed intake, Mean ([2]; Day 18, 10 nmol/kg twice a week): 3.3 | Feed intake, Mean ([2]; Day 18, 30 nmol/kg twice a week): 3.2 | Feed intake, Mean ([2]; Day 19, 3 nmol/kg twice a week): 3.3 | Feed intake, Mean ([2]; Day 19, 10 nmol/kg twice a week): 3.4 | Feed intake, Mean ([2]; Day 19, 30 nmol/kg twice a week): 3.3 | Feed intake, Mean ([2]; Day 20, 3 nmol/kg twice a week): 2.7 | Feed intake, Mean ([2]; Day 20, 10 nmol/kg twice a week): 2.4 | Feed intake, Mean ([2]; Day 20, 30 nmol/kg twice a week): 1.9 | Feed intake, Mean ([2]; Day 21, 3 nmol/kg twice a week): 3.0 | Feed intake, Mean ([2]; Day 21, 10 nmol/kg twice a week): 3.1 | Feed intake, Mean ([2]; Day 21, 30 nmol/kg twice a week): 3.1 | Feed intake, Mean ([2]; Day 22, 3 nmol/kg twice a week): 3.1 | Feed intake, Mean ([2]; Day 22, 10 nmol/kg twice a week): 3.2 | Feed intake, Mean ([2]; Day 22, 30 nmol/kg twice a week): 3.4 | Feed intake, Mean ([2]; Day 23, 3 nmol/kg twice a week): 2.9 | Feed intake, Mean ([2]; Day 23, 10 nmol/kg twice a week): 2.7 | Feed intake, Mean ([2]; Day 23, 30 nmol/kg twice a week): 2.3 | Feed intake, Mean ([2]; Day 24, 3 nmol/kg twice a week): 3.1 | Feed intake, Mean ([2]; Day 24, 10 nmol/kg twice a week): 3.1 | Feed intake, Mean ([2]; Day 24, 30 nmol/kg twice a week): 3.3 | Feed intake, Mean ([2]; Day 25, 3 nmol/kg twice a week): 2.9 | Feed intake, Mean ([2]; Day 25, 10 nmol/kg twice a week): 3.3 | Feed intake, Mean ([2]; Day 25, 30 nmol/kg twice a week): 3.2 | Feed intake, Mean ([2]; Day 26, 3 nmol/kg twice a week): 3.0 | Feed intake, Mean ([2]; Day 26, 10 nmol/kg twice a week): 3.3 | Feed intake, Mean ([2]; Day 26, 30 nmol/kg twice a week): 3.2 | Feed intake, Mean ([2]; Day 27, 3 nmol/kg twice a week): 2.8 | Feed intake, Mean ([2]; Day 27, 10 nmol/kg twice a week): 2.7 | Feed intake, Mean ([2]; Day 27, 30 nmol/kg twice a week): 2.2 | Feed intake, Mean ([2]; Day 28, 3 nmol/kg twice a week): 2.7 | Feed intake, Mean ([2]; Day 28, 10 nmol/kg twice a week): 3.2 | Feed intake, Mean ([2]; Day 28, 30 nmol/kg twice a week): 3.2
